# In ChEMBL document CHEMBL1201862, “PubChem BioAssay data set” (2004):
# Activity calls are given as the source filed them.
# Assays:
# [1] = Luminescence Cell-Based Dose Retest to Confirm Inhibitors of Cancer Stem Cells. [Related pubchem assays (depositor defined):AID2717, AID2721]; format: functional; conditions: Homo sapiens
# Melanocortin receptor 4 = Melanocortin receptor 4 (Homo sapiens, UniProt P32245); format: functional, cell-based;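 also: Cell-based assay with luminescence read-out, confirmatory dose-response testing for agonist activity of biased ligands at MC4R; human U2OS cells with tagged receptor and beta-arrestin; potency of agonists that increase receptor coupling to beta-arrestin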
# HEK293 = test: inhibitors of LMP1-driven NF-kB reporter, dose response, cell-based, HEK293, luciferase, cherry-pick (AID 588343); format: functional; conditions: Homo sapiens
# [2] = target: T1, Carboxy-terminal domain RNA polymerase II polypeptide A small phosphatase 1 (Homo sapiens, UniProt Q9GZU7); test: inhibitors of CTDSP1, concentration-response testing, biochemical assay, absorbance-based, actives from ultra-high-throughput screening (AID 540297); format: functional
# T1 sequence (Q9GZU7 whole entry): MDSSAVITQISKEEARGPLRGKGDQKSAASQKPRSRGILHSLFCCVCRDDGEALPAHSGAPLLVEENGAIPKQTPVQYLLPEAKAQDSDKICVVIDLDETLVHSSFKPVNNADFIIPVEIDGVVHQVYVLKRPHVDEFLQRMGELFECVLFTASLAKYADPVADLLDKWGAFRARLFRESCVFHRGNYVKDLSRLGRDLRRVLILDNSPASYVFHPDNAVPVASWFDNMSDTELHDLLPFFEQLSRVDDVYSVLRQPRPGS
# Cytochrome P450 2D6 = Cytochrome P450 2D6 (Homo sapiens, UniProt P10635);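 also: CYP2D6 member of a cytochrome P450 panel assay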
# Cytochrome P450 3A4 = Cytochrome P450 3A4 (Homo sapiens, UniProt P08684);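 also: CYP3A4 tested as one member of a cytochrome P450 panel screen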
# [3] = target: Dual specificity tyrosine-phosphorylation-regulated kinase 1A (Rattus norvegicus, UniProt Q63470); format: biochemical, Homo sapiens
# [4] = target: T2, Replicative DNA helicase DnaB (Mycobacterium tuberculosis, UniProt P9WMR3); test: DnaB intein splicing inhibitors, dose response, biochemical, cell-free fluorescence (AID 449749); format: functional
# T2 sequence (P9WMR3 whole entry): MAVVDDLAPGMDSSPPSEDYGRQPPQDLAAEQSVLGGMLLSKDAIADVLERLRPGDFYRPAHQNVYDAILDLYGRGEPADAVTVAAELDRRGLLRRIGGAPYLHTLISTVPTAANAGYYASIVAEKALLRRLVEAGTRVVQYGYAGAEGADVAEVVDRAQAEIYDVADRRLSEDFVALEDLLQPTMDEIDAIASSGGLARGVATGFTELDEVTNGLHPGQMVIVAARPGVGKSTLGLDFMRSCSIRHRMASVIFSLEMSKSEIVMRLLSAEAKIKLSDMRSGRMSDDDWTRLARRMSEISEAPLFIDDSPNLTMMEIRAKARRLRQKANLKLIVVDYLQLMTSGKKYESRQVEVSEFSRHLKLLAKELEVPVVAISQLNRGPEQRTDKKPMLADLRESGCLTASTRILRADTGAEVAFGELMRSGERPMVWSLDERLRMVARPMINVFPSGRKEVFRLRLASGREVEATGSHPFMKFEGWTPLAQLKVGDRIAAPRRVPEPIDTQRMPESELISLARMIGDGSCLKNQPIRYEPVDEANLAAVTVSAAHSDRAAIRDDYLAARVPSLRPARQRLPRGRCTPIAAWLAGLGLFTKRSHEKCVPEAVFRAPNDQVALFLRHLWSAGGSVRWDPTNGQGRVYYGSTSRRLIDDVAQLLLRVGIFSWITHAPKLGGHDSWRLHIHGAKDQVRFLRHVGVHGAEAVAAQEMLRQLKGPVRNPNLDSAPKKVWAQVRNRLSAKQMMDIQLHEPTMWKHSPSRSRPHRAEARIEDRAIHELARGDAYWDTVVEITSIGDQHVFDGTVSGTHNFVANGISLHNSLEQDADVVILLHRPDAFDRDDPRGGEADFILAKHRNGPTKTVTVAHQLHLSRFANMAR
# Protein RecA = target: T3, Protein RecA (Mycobacterium tuberculosis, UniProt P9WHJ3); test: Fluorescence Cell-Free Homogeneous Dose Retest to Identify Inhibitors of RecA-Intein Splicing Activity. [Related pubchem assays (depositor defined):AID2097, AID2223, AID489010, AID492950]; format: functional
# T3 sequence (P9WHJ3 whole entry): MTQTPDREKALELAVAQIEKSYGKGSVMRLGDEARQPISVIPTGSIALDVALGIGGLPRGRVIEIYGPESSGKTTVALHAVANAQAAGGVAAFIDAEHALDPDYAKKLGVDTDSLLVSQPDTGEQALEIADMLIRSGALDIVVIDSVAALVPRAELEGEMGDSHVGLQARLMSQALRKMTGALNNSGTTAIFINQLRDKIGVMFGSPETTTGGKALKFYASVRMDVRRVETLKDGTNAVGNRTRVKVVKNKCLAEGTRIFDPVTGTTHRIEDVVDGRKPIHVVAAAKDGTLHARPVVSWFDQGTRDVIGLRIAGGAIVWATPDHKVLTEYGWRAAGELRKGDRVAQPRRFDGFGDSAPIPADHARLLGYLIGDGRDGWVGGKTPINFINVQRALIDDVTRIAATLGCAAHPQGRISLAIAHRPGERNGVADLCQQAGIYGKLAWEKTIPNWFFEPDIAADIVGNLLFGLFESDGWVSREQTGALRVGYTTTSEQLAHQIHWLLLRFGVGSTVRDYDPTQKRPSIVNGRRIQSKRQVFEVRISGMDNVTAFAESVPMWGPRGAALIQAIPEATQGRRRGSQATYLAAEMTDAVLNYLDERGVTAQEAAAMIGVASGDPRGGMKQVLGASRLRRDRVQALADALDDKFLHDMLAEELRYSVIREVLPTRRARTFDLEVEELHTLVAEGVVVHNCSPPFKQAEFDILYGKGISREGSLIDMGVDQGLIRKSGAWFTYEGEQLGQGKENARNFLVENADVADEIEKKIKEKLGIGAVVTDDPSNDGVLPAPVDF
# Escherichia coli = test: microbe, parasite or virus in culture
# [5] = target: T4, Endoribonuclease toxin MazF (Escherichia coli K-12, UniProt P0AE70); test: MazF toxin RNase activators, dose response, biochemical, fluorescence, single-stranded RNA substrate, uHTS hits (AID 588481); format: functional
# T4 sequence (P0AE70 whole entry): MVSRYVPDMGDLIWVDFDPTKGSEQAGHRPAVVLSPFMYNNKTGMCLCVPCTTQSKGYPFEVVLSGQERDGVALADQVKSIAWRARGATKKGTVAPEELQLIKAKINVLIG
# [6] = target: T4, Endoribonuclease toxin MazF; test: fluorescent RNA oligo signal without MazF, dose response, counter-screen for MazEF activator project, biochemical, fluorescence, single-stranded RNase substrate (AID 588502); format: functional
# [7] = growth suppression of PTEN-null colon cells, dose response, cell-based, HCT116 PTEN knockout (AID 1047); format: functional;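 also: HCT116 colon tumor cells with PTEN knocked out; cells exposed to compound for 60 hours before readout; potency for loss of cell viability measured by luminescence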
# [8] = growth suppression of beta-catenin-knockout colon cells, dose response, cell-based, HCT116, human colon tumor (AID 1045); format: functional;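 also: HCT116 colon tumor cells with beta catenin knocked out; cells exposed to compound for 60 hours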
# Troponin, cardiac muscle = Troponin, cardiac muscle (Homo sapiens, UniProt P19429+P45379+P63316); test: Fluorescence-based biochemical high throughput dose response assay for activators of the calcium sensitivity of cardiac Regulated Thin Filaments (RTF). [Related pubchem assays (depositor defined):AID493008, AID493018, AID504382, AID504383]; format: protein-complex assay
# Protein Wnt-3a = Protein Wnt-3a (Mus musculus, UniProt P27467); test: Wnt3a-driven reporter signaling inhibition, dose response, selectivity assay for Gli-SUFU antagonist project, Wnt-LIGHT cells, luminescence (AID 651570); format: functional; conditions: read-out: IC50_Mean;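 also: Wnt-LIGHT reporter cells stimulated with conditioned medium from Wnt3a-producing cells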
# [9] = target: T5, Short transient receptor potential channel 4 (Mus musculus, UniProt Q9QUQ5); test: mouse TRPC4 channel inhibitors, dose response, cell-based, HEK293 TRPC4/mu-opioid, Fluo-4 calcium (AID 434942); format: functional;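 also: potency of inhibitors blocking the TRPC4 calcium response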
# T5 sequence (Q9QUQ5 whole entry): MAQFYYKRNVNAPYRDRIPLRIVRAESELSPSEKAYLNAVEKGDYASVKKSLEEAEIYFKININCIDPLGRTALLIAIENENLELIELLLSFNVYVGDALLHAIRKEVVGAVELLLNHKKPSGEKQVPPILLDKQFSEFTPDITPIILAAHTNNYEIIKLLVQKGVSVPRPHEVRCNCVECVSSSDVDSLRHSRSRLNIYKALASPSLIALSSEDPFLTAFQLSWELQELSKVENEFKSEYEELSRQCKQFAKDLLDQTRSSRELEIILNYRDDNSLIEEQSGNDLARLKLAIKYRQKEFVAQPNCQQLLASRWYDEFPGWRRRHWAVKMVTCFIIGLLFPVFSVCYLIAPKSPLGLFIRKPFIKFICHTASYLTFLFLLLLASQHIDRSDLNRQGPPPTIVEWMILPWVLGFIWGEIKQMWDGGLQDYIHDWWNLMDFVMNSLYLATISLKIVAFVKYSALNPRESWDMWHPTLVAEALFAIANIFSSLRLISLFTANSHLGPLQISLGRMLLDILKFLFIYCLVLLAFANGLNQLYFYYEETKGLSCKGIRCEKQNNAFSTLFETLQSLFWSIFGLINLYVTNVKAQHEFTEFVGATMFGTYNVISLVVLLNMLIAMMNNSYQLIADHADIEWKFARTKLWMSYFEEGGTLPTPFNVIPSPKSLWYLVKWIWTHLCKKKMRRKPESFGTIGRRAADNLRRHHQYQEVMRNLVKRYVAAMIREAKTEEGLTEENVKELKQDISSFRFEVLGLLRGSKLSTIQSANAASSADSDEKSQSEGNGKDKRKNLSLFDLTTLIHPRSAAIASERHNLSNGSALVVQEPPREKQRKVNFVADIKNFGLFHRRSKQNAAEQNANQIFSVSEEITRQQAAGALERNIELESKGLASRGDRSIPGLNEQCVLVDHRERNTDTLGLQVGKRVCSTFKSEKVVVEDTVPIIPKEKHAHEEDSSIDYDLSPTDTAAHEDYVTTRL
# [10] = Shn3 3'UTR reporter inhibitors, dose response, cell-based, Clone20 osteoblasts, firefly luciferase, cherry-picked (AID 624132); format: functional;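 also: firefly luciferase luminescence from reporter carrying the Shn3 3'UTR in osteoblasts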
# [11] = HepG2 cell cytotoxicity, dose response, cytotoxicity control for Shn3 inhibitor project, CellTiter-Glo, cherry-picked (AID 624134); format: functional, cell-based
# [12] = control 3'UTR Renilla luciferase suppression, dose response, counter-screen for Shn3 inhibitor project, cell-based, Clone20-Shn3RL, cherry-picked (AID 624133); format: functional
# INS1 = test: beta cell apoptosis inhibitors, cytokine rescue, dose response, luminescence, retest (AID 449756); format: functional, cell-based; conditions: Rattus norvegicus;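 also: cell death triggered by IL-1 beta plus TNF-alpha plus IFN-gamma mixture; protective hits raise ATP signal compared with cytokine alone wells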
# P388/ADR = test: cells; format: functional; conditions: Mus musculus
# SN12K1 = test: cells; format: functional; conditions: Homo sapiens
# P388 = test: cells; format: functional; conditions: Mus musculus
# [13] = target: DNA dC->dU-editing enzyme APOBEC-3A (Homo sapiens, UniProt P31941); test: APOBEC3A DNA deaminase inhibitors, dose response, biochemical (AID 504722); format: functional
# [14] = target: DNA dC->dU-editing enzyme APOBEC-3G (Homo sapiens, UniProt Q9HC16); test: Dose Response confirmation of small molecule APOBEC3G DNA Deaminase Inhibitors via a fluorescence-based single-stranded DNA deaminase assay. [Related pubchem assays (depositor defined):AID493012, AID493028]; format: functional
structure (smiles),measurement,setting,value
COc1ccc(-c2sc3ccc(N4CCOCC4)cc3c2C#CC2(O)CCCCC2)cc1,AC50,[1],0.749 µM (active)
same,EC50,Melanocortin receptor 4,> 89.2 µM (inactive)
O=C(C=C1SCCS1)/C=C/c1ccco1,AC50,HEK293,10.8 µM (active)
same,IC50,[2],7.85 µM (active)
same,AC50,Cytochrome P450 2D6,17.8 µM (inconclusive)
same,AC50,Cytochrome P450 3A4,15.8 µM (inconclusive)
O=C(NCc1ccco1)c1sc2ccccc2c1Cl,AC50,[3],7.39 µM (active)
CC(=O)c1ccc(-c2cccc(-c3nc4ccccn4c3NC3CCCCC3)c2)cc1,AC50,[4],0.377 µM (active)
same,EC50,Protein RecA,0.178 µM (active)
same,AC50,Escherichia coli,299 µM (active)
O=c1oc(/C=C/c2ccco2)nc2sc3c(c12)CCC3,EC50,[5],> 99 µM (inactive)
same,EC50,[6],> 99 µM (inactive)
N#C/C(=C\c1ccc(-c2ccc(F)cc2)o1)C(=O)Nc1nc(-c2cccs2)cs1,EC50,[7],30 µM (active)
same,EC50,[8],25.6 µM (active)
same,EC50,"Troponin, cardiac muscle",> 71.5 µM (inactive)
same,EC50,[5],> 99 µM (inactive)
same,EC50,[6],27.2 µM (inactive)
same,EC50,Melanocortin receptor 4,> 89.2 µM (inactive)
COc1ccc(O)c(-c2cc(-c3cccs3)[nH]n2)c1,AC50,[3],10.6 µM (active)
COc1ccccc1-c1c(-c2ccc(O)cc2O)n[nH]c1C(F)(F)F,IC50,Protein Wnt-3a,2.07 µM (active)
CC1CC(=O)N(c2ccc(NCc3ccc(Cl)cc3)c([N+](=O)[O-])c2)C1=O (stereo not given),EC50,[5],96.1 µM (inactive)
same,EC50,[6],> 99 µM (inactive)
Cc1cc(Nc2ccccc2)nc2cc(O)ccc12,EC50,[9],3.76 µM (active)
same,AC50,[3],4.44 µM (active)
CCN1CCN(Cc2ccc(NC(=O)c3ccc(C)c(NC(=O)c4nccn4C)c3)cc2C(F)(F)F)CC1,AC50,HEK293,1.56 µM (active)
COC(=O)CSc1ncnc2c1sc1nc3c(cc12)COC(C)(C)C3,AC50,HEK293,4.32 µM (active)
O=C1C(Cl)=C(NCCc2ccccc2)C(=O)N1CCc1ccccc1,EC50,[5],> 99 µM (inactive)
same,EC50,[6],> 99 µM (inactive)
CN(Cc1nccs1)C(=O)c1cc(COc2cccc3cnccc23)on1,AC50,[10],2.77 µM (active)
same,AC50,[11],48.5 µM (active)
same,AC50,[12],1.2 µM (active)
same,IC50,Protein Wnt-3a,1.3 µM (active)
Cc1sc2ncnc(N3CCN(S(=O)(=O)c4ccc(C(C)(C)C)cc4)CC3)c2c1C,AC50,INS1,3.23 µM (active)
same,IC50,Protein Wnt-3a,6.86 µM (active)
CC(=O)Nc1cc(-c2cccc(C(=O)N(C)C)c2)cn2c(-c3ccc(F)c(Cl)c3)cnc12,EC50,Melanocortin receptor 4,> 89.2 µM (inactive)
O=C1C(O)=C(CC=C(Cl)Cl)C(=O)c2ccccc21,AC50,[3],4.87 µM (active)
same,GI50,P388/ADR,1.6 µM (inactive)
same,GI50,SN12K1,1.11 µM (active)
same,GI50,P388,1.8 µM (inactive)
COc1cccc(-c2cnc3c(NC(C)=O)cc(-c4ccc(C(=O)N5CCOCC5)cc4)cn23)c1,EC50,Melanocortin receptor 4,> 89.2 µM (inactive)
Cc1nn(-c2ccccc2)c(O)c1/C=N/c1ccc2[nH]c(O)nc2c1,EC50,[5],> 99 µM (inactive)
same,EC50,[6],> 99 µM (inactive)
Sc1nnc(C2CCCCC2)n1/N=C/c1ccncc1,IC50,[13],> 100 µM (inactive)
same,IC50,[14],7.27 µM (active)
same,AC50,HEK293,11.5 µM (active)
